Activity calls are given as the source filed them. The calls are words filed in the database; no cut-off is given here.
Tests used:
HT-29 [1] = test: Antiproliferative activity against human HT-29 cells assessed as cell growth inhibition incubated for 72 hrs by MTT assay; format: functional
U-87 MG [2] = test: Antiproliferative activity against human U87 cells assessed as cell growth inhibition incubated for 72 hrs by MTT assay; format: functional, U-87MG ATCC
MCF7 [3] = test: Antiproliferative activity against human MCF7 cells assessed as cell growth inhibition incubated for 72 hrs by MTT assay; format: functional
A2780 [4] = test: Antiproliferative activity against human A2780 cells assessed as cell growth inhibition incubated for 72 hrs by MTT assay; format: functional
NCI-H460 [5] = test: Antiproliferative activity against human NCI-H460 cells assessed as cell growth inhibition incubated for 72 hrs by MTT assay; format: functional
A-431 [6] = test: Antiproliferative activity against human A-431 cells assessed as cell growth inhibition incubated for 72 hrs by MTT assay; format: functional
DU-145 [7] = test: Antiproliferative activity against human DU-145 cells assessed as cell growth inhibition incubated for 72 hrs by MTT assay; format: functional
BE(2)-C [8] = test: Antiproliferative activity against human BE2C cells assessed as cell growth inhibition incubated for 72 hrs by MTT assay; format: functional
[9] = Antiproliferative activity against human SJG2 cells assessed as cell growth inhibition incubated for 72 hrs by MTT assay; format: functional; conditions: SJ-G2
MIA PaCa-2 [10] = test: Antiproliferative activity against human MIA PaCa-2 cells assessed as cell growth inhibition incubated for 72 hrs by MTT assay; format: functional
[11] = Cytotoxicity against human MCF-10A cells assessed as cell growth inhibition incubated for 72 hrs by MTT assay; format: toxicity, cell-based
HT-29 [12] = test: Antiproliferative activity against human HT-29 cells assessed as cell growth inhibition at 25 uM incubated for 72 hrs by MTT assay relative to control; format: functional
U-87 MG [13] = test: Antiproliferative activity against human U87 cells assessed as cell growth inhibition at 25 uM incubated for 72 hrs by MTT assay relative to control; format: functional, U-87MG ATCC
MCF7 [14] = test: Antiproliferative activity against human MCF7 cells assessed as cell growth inhibition at 25 uM incubated for 72 hrs by MTT assay relative to control; format: functional
A2780 [15] = test: Antiproliferative activity against human A2780 cells assessed as cell growth inhibition at 25 uM incubated for 72 hrs by MTT assay relative to control; format: functional
NCI-H460 [16] = test: Antiproliferative activity against human NCI-H460 cells assessed as cell growth inhibition at 25 uM incubated for 72 hrs by MTT assay relative to control; format: functional
A-431 [17] = test: Antiproliferative activity against human A-431 cells assessed as cell growth inhibition at 25 uM incubated for 72 hrs by MTT assay relative to control; format: functional
DU-145 [18] = test: Antiproliferative activity against human DU-145 cells assessed as cell growth inhibition at 25 uM incubated for 72 hrs by MTT assay relative to control; format: functional
BE(2)-C [19] = test: Antiproliferative activity against human BE2C cells assessed as cell growth inhibition at 25 uM incubated for 72 hrs by MTT assay relative to control; format: functional
[20] = Antiproliferative activity against human SJG2 cells assessed as cell growth inhibition at 25 uM incubated for 72 hrs by MTT assay relative to control; format: functional; conditions: SJ-G2
MIA PaCa-2 [21] = test: Antiproliferative activity against human MIA PaCa-2 cells assessed as cell growth inhibition at 25 uM incubated for 72 hrs by MTT assay relative to control; format: functional
[22] = Cytotoxicity against human MCF-10A cells assessed as cell growth inhibition at 25 uM incubated for 72 hrs by MTT assay relative to control; format: toxicity, cell-based
Tubulin (Homo sapiens) [23] = biological target: T1, Tubulin (Homo sapiens) (UniProt P68371+Q9H4B7+P0DPH7+P68366+Q13509+Q71U36+P04350+Q3ZCM7+P07437+P68363+Q9BQE3+Q6PEY2+Q13885+Q9BVA1+Q9BUF5); test: Inhibition of tubulin (unknown origin) polymerization assessed as reduction microtubule formation at 10 uM by fluorometric analysis; format: protein-complex assay
Tubulin (Homo sapiens) [24] = biological target: T1, Tubulin (Homo sapiens); test: Induction of tubulin (unknown origin) polymerization assessed as microtubule formation by measuring increase in fluorescence at 10 uM by fluorometric analysis; format: protein-complex assay
MIA PaCa-2 [25] = test: Induction of G2/M phase cell cycle arrest in human MIA PaCa-2 cells assessed as sub G1 phase cells at 1.0 uM incubated for 24 hrs by PI/RNase staining based analysis (reference value: 4 +/- 2%); format: functional
MIA PaCa-2 [26] = test: Induction of G2/M phase cell cycle arrest in human MIA PaCa-2 cells assessed as G1 phase cells at 1.0 uM incubated for 24 hrs by PI/RNase staining based analysis (reference value: 66 +/- 2%); format: functional
MIA PaCa-2 [27] = test: Induction of G2/M phase cell cycle arrest in human MIA PaCa-2 cells assessed as S phase cells at 1.0 uM incubated for 24 hrs by PI/RNase staining based analysis (reference value: 11 +/- 1%); format: functional
MIA PaCa-2 [28] = test: Induction of G2/M phase cell cycle arrest in human MIA PaCa-2 cells at 1.0 uM incubated for 24 hrs by PI/RNase staining based analysis (reference value: 20 +/- 1%); format: functional
MIA PaCa-2 [29] = test: Induction of G2/M phase cell cycle arrest in human MIA PaCa-2 cells assessed as sub G1 phase cells at 5 uM incubated for 24 hrs by PI/RNase staining based analysis (reference value: 4 +/- 2%); format: functional
MIA PaCa-2 [30] = test: Induction of G2/M phase cell cycle arrest in human MIA PaCa-2 cells assessed as G1 phase cells at 5 uM incubated for 24 hrs by PI/RNase staining based analysis (reference value: 66 +/- 2%); format: functional
MIA PaCa-2 [31] = test: Induction of G2/M phase cell cycle arrest in human MIA PaCa-2 cells assessed as S phase cells at 5 uM incubated for 24 hrs by PI/RNase staining based analysis (reference value: 11 +/- 1%); format: functional
MIA PaCa-2 [32] = test: Induction of G2/M phase cell cycle arrest in human MIA PaCa-2 cells at 5 uM incubated for 24 hrs by PI/RNase staining based analysis (reference value: 20 +/- 1%); format: functional
MIA PaCa-2 [33] = test: Induction of G2/M phase cell cycle arrest in human MIA PaCa-2 cells assessed as sub G1 phase cells at 0.1 uM incubated for 24 hrs by PI/RNase staining based analysis (reference value: 4 +/- 2%); format: functional
MIA PaCa-2 [34] = test: Induction of G2/M phase cell cycle arrest in human MIA PaCa-2 cells assessed as G1 phase cells at 0.1 uM incubated for 24 hrs by PI/RNase staining based analysis (reference value: 66 +/- 2%); format: functional
MIA PaCa-2 [35] = test: Induction of G2/M phase cell cycle arrest in human MIA PaCa-2 cells assessed as S phase cells at 0.1 uM incubated for 24 hrs by PI/RNase staining based analysis (reference value: 11 +/- 1%); format: functional
MIA PaCa-2 [36] = test: Induction of G2/M phase cell cycle arrest in human MIA PaCa-2 cells at 0.1 uM incubated for 24 hrs by PI/RNase staining based analysis (reference value: 20 +/- 1%); format: functional
MIA PaCa-2 [37] = test: Induction of G2/M phase cell cycle arrest in human MIA PaCa-2 cells assessed as sub G1 phase cells at 0.5 uM incubated for 24 hrs by PI/RNase staining based analysis (reference value: 4 +/- 2%); format: functional
MIA PaCa-2 [38] = test: Induction of G2/M phase cell cycle arrest in human MIA PaCa-2 cells assessed as G1 phase cells at 0.5 uM incubated for 24 hrs by PI/RNase staining based analysis (reference value: 66 +/- 2%); format: functional
MIA PaCa-2 [39] = test: Induction of G2/M phase cell cycle arrest in human MIA PaCa-2 cells assessed as S phase cells at 0.5 uM incubated for 24 hrs by PI/RNase staining based analysis (reference value: 11 +/- 1%); format: functional
MIA PaCa-2 [40] = test: Induction of G2/M phase cell cycle arrest in human MIA PaCa-2 cells at 0.5 uM incubated for 24 hrs by PI/RNase staining based analysis (reference value: 20 +/- 1%); format: functional
Tubulin (Homo sapiens) [41] = biological target: T1, Tubulin (Homo sapiens); test: Inhibition of tubulin (unknown origin) polymerization assessed as reduction microtubule formation at 10 uM measured after approximately 1 hrs by fluorometric analysis; format: protein-complex assay

Compound | GI50 (HT-29 [1]) | GI50 (U-87 MG [2]) | GI50 (MCF7 [3]) | GI50 (A2780 [4]) | GI50 (NCI-H460 [5]) | GI50 (A-431 [6]) | GI50 (DU-145 [7]) | GI50 (BE(2)-C [8]) | GI50 [9] | inhibition at 25 µM (HT-29 [12]) | inhibition at 25 µM (U-87 MG [13]) | inhibition at 25 µM (MCF7 [14]) | inhibition at 25 µM (A2780 [15]) | inhibition at 25 µM (NCI-H460 [16]) | inhibition at 25 µM (A-431 [17]) | inhibition at 25 µM (DU-145 [18]) | inhibition at 25 µM (BE(2)-C [19]) | inhibition at 25 µM [20] | inhibition at 25 µM (MIA PaCa-2 [21]) | inhibition at 72 h, 25 µM [22] | other results
COc1ccc(/C=C/c2nc3ccccc3c(=O)[nH]2)cc1 | 3800 nM | > 50000 nM | 2600 nM | 12000 nM | 11000 nM | 33000 nM | 45000 nM | 4400 nM | 6400 nM | 78% | 24% | > 100% | 66% | 60% | 45% | 41% | 66% | 89% | 67% | 60% | GI50 (MIA PaCa-2 [10]): 5500 nM; GI50 at 72 h [11]: 11000 nM; inhibition (Tubulin (Homo sapiens) [23]): Active
O=C1NC(/C=C/c2ccccc2[N+](=O)[O-])Nc2ccccc21 (configuration not stated) | – | – | – | – | – | – | – | – | – | 37% | 24% | 55% | 69% | 35% | 40% | 66% | 53% | 81% | 32% | 13% | Activity (Tubulin (Homo sapiens) [24]): inactive
COc1ccccc1/C=C/c1nc2ccccc2c(=O)[nH]1 | 260 nM | 1400 nM | 350 nM | 330 nM | 420 nM | 330 nM | 900 nM | 310 nM | 790 nM | > 100% | > 100% | > 100% | > 100% | > 100% | > 100% | > 100% | > 100% | > 100% | > 100% | > 100% | GI50 (MIA PaCa-2 [10]): 370 nM; GI50 at 72 h [11]: 560 nM; Activity (MIA PaCa-2 [25]): 5%; Activity (MIA PaCa-2 [26]): 56%; Activity (MIA PaCa-2 [27]): 12%; Activity (MIA PaCa-2 [28]): 27%; Activity (MIA PaCa-2 [29]): 6%; Activity (MIA PaCa-2 [30]): 10%; Activity (MIA PaCa-2 [31]): 6%; Activity (MIA PaCa-2 [32]): 78%; inhibition (Tubulin (Homo sapiens) [23]): Active
O=C1NC(c2cccc3ccccc23)Nc2ccccc21 (configuration not stated) | 20 nM | 220 nM | 75 nM | 31 nM | 37 nM | 20 nM | 89 nM | 27 nM | 50 nM | > 100% | 93% | > 100% | > 100% | > 100% | > 100% | > 100% | > 100% | > 100% | 94% | > 100% | GI50 (MIA PaCa-2 [10]): 48 nM; GI50 at 72 h [11]: 40 nM; Activity (MIA PaCa-2 [33]): 4%; Activity (MIA PaCa-2 [34]): 63%; Activity (MIA PaCa-2 [35]): 11%; Activity (MIA PaCa-2 [36]): 22%; Activity (MIA PaCa-2 [37]): 17%; Activity (MIA PaCa-2 [38]): 17%; Activity (MIA PaCa-2 [39]): 11%; Activity (MIA PaCa-2 [40]): 55%; inhibition (Tubulin (Homo sapiens) [41]): Active

Reference: ChEMBL document CHEMBL5532698, “2,3-Dihydroquinazolin-4(1H)-ones and quinazolin-4(3H)-ones as broad-spectrum cytotoxic agents and their impact on tubulin polymerisation” (RSC Med Chem, 2024)
